Test results reported in US20160082133A1, “CHEMICAL EXCHANGE SATURATION TRANSFER (CEST) BASED MRI USING REPORTER GENES AND SUBSTRATES AND METHODS THEREOF” (The Johns Hopkins University, priority 2013, published 2016).
Entries after “also recorded” stand apart in the source; their conditions may differ.

Key:
[1] = test system: 9L^wt and 9L^HSV1-tk tumors; experiment: Terminal transferase nick-end-labeling (TUNEL) of brain tumors; format: in vivo, mice; details: 150 mg/kg, 6 hours post i.v. injection
Procedure: ApopTag® Plus In Situ Apoptosis Fluorescein Detection Kit (Millipore) was used for detecting degraded DNA fragments to evaluate apoptosis after the administration of compound 2. Six hours after i.v. administration of 2 (150 mg/kg body weight) mice were transcardially perfused with 10 mM PBS and 4% PFA for tissue fixation. Brains were fixed in 4% PFA overnight, cryopreserved in 30% sucrose, and followed by cryo-sectioning at 30 μm slices. Slices were post-fixed in ethanol: acetic acid (2:1) solution followed by the manufacture procedure for using the ApopTag® Plus In Situ Apoptosis Fluorescein Detection Kit (Millipore, […]).

[2] = In vitro CEST-MRI of thymidine analogues at 11.7 T; format: physicochemical; details: pH 7.4, 37° C.
Procedure: All compounds were dissolved at a concentration of 20 mM in phosphate-buffered saline (PBS) (pH=7.4) and placed in microcapillaries, as described previously.^17 CESTMRI experiments were performed on a vertical 11.7 T scanner (Bruker Avance system) at 37° C. A modified RARE sequence (TR/TE=10 000/9.4 ms; RARE factor=16; 1 mm slice thickness; FOV=11×11 mm^2; matrix size=64×32; resolution=0.17×0.34 mm^2; and NA=2) including a magnetization transfer (MT) module ([…]) was used to acquire CEST-weighted images from −8 to +8 ppm with increments of 0.2 ppm around the water resonance, which was assigned to be at 0 ppm. Pixel-based B0 correction was used as described before using the same parameters as above except for TR=1500 ms and B1/tsat=21 Hz/500 ms, with a sweep range from −2 to +2 ppm (0.1 ppm steps). Data processing was performed using custom-written scripts in MATLAB (Mathworks). Mean CEST spectra were plotted from an ROI for each sample, after B0 correction. MTRasym=100×(S^−Aω−S^AωA/^‘−’0)/3 was computed at different offsets Aω.

[3] = at 5 ppm for 20 nM agent (so in the source)

For `CC1(C)CN([C@H]2C[C@H](O)[C@@H](CO)O2)C(=O)NC1=O` [Compound 2, 5-Methyl-5,6-dihydrothymidine], the “apoptosis (TUNEL staining)” value [1] was “did not induce apoptosis; also recorded: do not induce apoptosis”, the “MTRasym (8.5 Hz)” value [2, 3] was 4% and the “MTRasym (170 Hz)” value [2, 3] was 16%. The “MTRasym (213 Hz)” value [2, 3] was 21% and the “MTRasym (128 Hz)” value ([2]; at 5 ppm for 20 mM agent) was 10%.
